Results published in patent US12448388B2, “PRMT5 inhibitors and uses thereof” (Gilead Sciences, Inc., priority 2023, dated 2025).
Converted amounts (≈) assume the structure as drawn. Where two headings read alike, the source gives them in different places.

Columns and labels:
[1] = tested on: HCT116 MTAP-deleted cell lines; assay: Cell viability assay (CellTiter-Glo, 7 days), HCT116 MTAP-deleted; assay type: cell-based; settings: for Selectivity: HCT116 WT CC50 versus HCT116 MTAP^del CC50; for plasma-adjusted CC50 (paCC50): paCC50 = CC50-HCT116-MTAP^del * (% free CCM/% free human plasma); for CC50: Homo sapiens, HCT116 MTAP-deleted
Procedure, shortened: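 First, compounds are serially diluted in DMSO and dispensed into plates, which are frozen until seeding. Next, cells are added and incubated 7 days at 37 °C, 5% CO2, 90% humidity. Finally, CellTiter-Glo reagent is added and luminescence is measured to derive CC50.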

[2] = Cell viability assay (CellTiter-Glo, 7 days), HCT116 WT; assay type: cell-based; settings: human, HCT116 WT cells, 7 days of treatment, CTG
Procedure: Control compounds were analyzed in parallel each time for quality control. In Brief, on Day -1, a serial dilution of stock compounds in DMSO was performed using BioMek liquid handlers and dispensed using Echo acoustic dispenser into 384 well plates. Both tool compounds and sample compounds were spotted in the same plate for a dose response of PRMT5 inhibitors. Compound plates were stored as frozen until the cells were ready for seeding. […] After equilibrating the plate in room temperature, the cells were incubated for 7 days inside the sealed incubator set at 37° C. with 90% humidity and 5% CO2. On Day 7, the viability of cells was measured using a CTG assay kit (CellTitre-Glo;Promega cat no. G7573). Shortly, 40 μl per well of luminescent cell viability assay reagent were dispensed using EL460 liquid dispenser 5 μl cassette. CTG luminescence signal was measured using an EnVision plate reader (PerkinElmer) in accordance with manufacturer's instruction. […] Selectivity with * is artificially high due to limited solubility of the compound hampering accurate measurement of WT CC50.

[3] = MDR1/BCRP assay: permeability in cPgp-KO-MDCK-WT cells; assay type: in vitro ADME; settings: dog, pH 7.4
Procedure: The cells were maintained in an incubator at 37° C., 90% humidity, and 5% CO2 until reaching confluence over 5 days in 96-well transwell plates. Experiments were conducted using an HBSS donor buffer (Invitrogen) containing 10 mM HEPES and 15 mM glucose, adjusted to pH 7.4. The receiver well contained HBSS buffer supplemented with 1% BSA, 10 mM HEPES, and 15 mM glucose, and the pH was adjusted to 7.4. TEER values were measured to assess membrane integrity after an initial equilibration with BSA-free transport buffer for 15 minutes. The experiment was started by adding dosing solutions containing test compounds at 1 μM. Cells were dosed on the apical (A) side or basolateral (B) side at 100 μl and 200 μl, respectively, to determine forward (A to B) and reverse (B to A) permeability. At the 2-hour time point, 50 μl samples were collected from the receiver compartment. Each compound was tested in 2 separate replicate wells for each condition. All samples were immediately collected into plates, and 50 μL of acetonitrile was added. Subsequently, 350 μl of 30:70 methanol: acetonitrile containing internal standard was added to precipitate proteins and stabilize the test compounds. To test for non-specific binding and compound instability, the total amount of the drug was quantified at the end of the experiment and compared to the material present in the original dosing solution as a percentage of the recovery. All samples were analyzed by LC-MS/MS using electrospray ionization.
The apparent permeability, Papp, and % recovery were calculated as follows: […]

[4] = PBS solubility (kinetic solubility from DMSO stocks); assay type: physicochemical; settings: 22 °C, aqueous buffer, kinetic from dmso stock; 1x PBS pH 7.4, 1.0% DMSO, 24-hour incubation at ambient temperature
Procedure: Buffer Preparation: 1×PBS, 7.4: Phosphate Buffered Saline solution 10×, PBS (Fisher Bioreagent, part number BP399-500) 50 mL was added to approximately 450 mL HPLC grade H2O. The volume of the solution was then adjusted to 500 mL for a total dilution factor of 1:10 and a final PBS concentration of 1×. The pH of the final solution was measured and found to be 7.4.
The final DMSO Concentration is 1.0% and maximum theoretical compound concentration is 100 μM (assuming stock concentration of 10 mM). The filter plate was sealed. Following 24-hour incubation at ambient temperature (20.8-24.0° C.), the samples were vacuum filtered, and the filtrates were collected in a 96 well polypropylene plate for analysis. The collection plate was sealed for analysis. Filtrates were injected into the nitrogen detector for quantification on Analiza's Automated Discovery Workstation. The results are reported here in both μM and μg/mL.
Calculation of Results: The equimolar nitrogen response of the detector is calibrated using standards which span the dynamic range of the instrument from 0.08 to 4500 μg/ml nitrogen. The filtrates were quantified with respect to this calibration curve. The calculated solubility values are corrected for background nitrogen present in the DMSO, and the media used to prepare the samples. All reported values for compounds containing adjacent nitrogen atoms in a ring structure should be increased by ˜25%. […] The solubility results presented assume that the samples were free of nitrogen containing impurities and are stable under the assay conditions.

[5] = Pharmacokinetics in cassette in male Sprague-Dawley rats for Kp measurement; assay type: in vivo; settings: 1 mg/kg, intravenous
Procedure: E.1 Test Animal: Male Sprague-Dawley Rats (225-300 g) with Indwelling Bilateral Jugular Vain Cannula (JVC/JVC) or Single Jugular Vein Cannula (JVC)
E.2 Pharmaceutical Formulation and Administration
Test compound was dissolved in the vehicle of 10% DMSO, 10% ethanol, 40% polyethylene glycol 300, and 40% propylene glycol to get 1 mg/mL test compound solution. The compound was administered by intravenous administration at a dose of 1 mL/kg. Fasting was not required.
• Anticoagulant: K2EDTA • Volume: approximately 225 μL blood at each bleed • Jugula vein via syringe and needle or another method (non-terminal samples) or exsanguination (cardiac puncture) under isoflurane (or CO2 inhalation if isoflurane is unavailable) anesthesia (terminal time points). Blood samples were collected into K2EDTA tubes • Tissue collection and processing: following the terminal blood collection, the brain and CSF were collected from each animal.

[6] = HCT-116, 168 h, 7 days of treatment, CTG, read-out: CC50-HCT116-MTAP^del
[7] = HCT-116, cell viability, class symbols, read-out: CC50
[8] = HCT-116, cell viability assay, class symbols, read-out: CC50
[9] = brain Kp = [brain]/[plasma], rat, read-out: Rat brain Kp
[10] = brain Kpu,u = Kp * (plasma free/rat brain free), read-out: Rat brain Kpu,u

Compound	Papp A→B at 2 h, 1 µM [3] [×10⁻⁶ cm/s]	solubility at 24 h [4] [µM]	Kp [5, 9]	Kp [5, 10]	Selectivity [1]	plasma-adjusted CC50 (paCC50) ([1]; HCT-116) [nM]	CC50 [1, 6] [nM]	CC50 [1, 7] [nM]	CC50 at 7 days [2] [nM]	CC50 [1, 8] [nM]
C[C@@H]1C[C@@H]2Oc3cc(C(F)(F)F)ccc3[C@@H]2N(C(=O)c2cc3c(cn2)nc(N)c2cncn23)C1 [Ff-252, (4-aminoimidazo[1,5-a]pyrido[3,4-e]pyrazin-8-yl)((3R,4aS,9bS)-3-methyl-7-(trifluoromethyl)-3,4,4a,9b-tetrahydrobenzofuro[3,2-b]pyridin-1(2H)-yl)methanone]	13.6	< 1			41	269	13	< 100	534	
Cc1ncc2c(N)nc3cc(F)c(C(=O)N4CCC[C@@H]5Oc6nc(C(F)(F)F)ccc6[C@@H]54)cc3n12 [Ff-363, (4-amino-7-fluoro-1-methylimidazo[1,5-a]quinoxalin-8-yl)((4aS,9bS)-7-(trifluoromethyl)-3,4,4a,9b-tetrahydrofuro[2,3-b:4,5-b′]dipyridin-1(2H)-yl)methanone]	13.4	21.8 (≈ 10.6 µg/mL)			127	196	16	< 100	2040	
Cc1ncc2c(N)nc3cnc(C(=O)N4CC[C@H]5C[C@@H]4c4ccc(OC(F)(F)F)cc4O5)cc3n12 [Ff-698, (4-amino-1-methylimidazo[1,5-a]pyrido[3,4-e]pyrazin-8-yl)((2S,6R)-9-(trifluoromethoxy)-3,4-dihydro-2H-2,6-methanobenzo[b][1,5]oxazocin-5(6H)-yl)methanone]	11.4	< 1			96	295	15		1440	
Cc1ncc2c(N)nc3cnc(C(=O)N4CC[C@H]5C[C@@H]4c4ccc(C(F)(F)F)c(F)c4O5)cc3n12 [Ff-699, (4-amino-1-methylimidazo[1,5-a]pyrido[3,4-e]pyrazin-8-yl)((2S,6R)-10-fluoro-9-(trifluoromethyl)-3,4-dihydro-2H-2,6-methanobenzo[b][1,5]oxazocin-5(6H)-yl)methanone]	10.9	2.6 (≈ 1.26 µg/mL)			74	237	15		1110	

Further lines, with some results ahead:

Papp A→B at 2 h, 1 µM [3] [×10⁻⁶ cm/s]	solubility at 24 h [4] [µM]	Kp [5, 9]	Kp [5, 10]	Compound	Selectivity [1]	plasma-adjusted CC50 (paCC50) ([1]; HCT-116) [nM]	CC50 [1, 6] [nM]	CC50 [1, 7] [nM]	CC50 at 7 days [2] [nM]	CC50 [1, 8] [nM]
10.2	< 1			Cc1ncc2c(N)nc3ccc(C(=O)N4CCC[C@@H]5Oc6cc(C(F)(F)F)ccc6[C@@H]54)cc3n12 [Ff-345, (4-amino-1-methylimidazo[1,5-a]quinoxalin-8-yl)((4aS,9bS)-7-(trifluoromethyl)-3,4,4a,9b-tetrahydrobenzofuro[3,2-b]pyridin-1(2H)-yl)methanone]	113		32	< 100	3620	
10.8	4.2 (≈ 2.01 µg/mL)			N#Cc1cc2nc(N)c3cncn3c2cc1C(=O)N1CCC[C@@H]2Oc3cc(C(F)(F)F)ccc3[C@@H]21 [Ff-346, 4-amino-8-((4aS,9bS)-7-(trifluoromethyl)-1,2,3,4,4a,9b-hexahydrobenzofuro[3,2-b]pyridine-1-carbonyl)imidazo[1,5-a]quinoxaline-7-carbonitrile]	51	155	6	< 100	305	
10	< 1			Cc1ncn2c1c(N)nc1cc(F)c(C(=O)N3CCC[C@@H]4Oc5cc(C(F)(F)F)ccc5[C@@H]43)cc12 [Ff-379, (4-amino-7-fluoro-3-methylimidazo[1,5-a]quinoxalin-8-yl)((4aS,9bS)-7-(trifluoromethyl)-3,4,4a,9b-tetrahydrobenzofuro[3,2-b]pyridin-1(2H)-yl)methanone]	56		13		730	< 100
7.4	< 1	0.52	0.06	Nc1nc2cc(Cl)c(C(=O)N3CCC[C@@H]4Oc5cc(C(F)(F)F)ccc5[C@@H]43)cc2n2cncc12 [Ff-587, (4-amino-7-chloroimidazo[1,5-a]quinoxalin-8-yl)((4aS,9bS)-7-(trifluoromethyl)-3,4,4a,9b-tetrahydrobenzofuro[3,2-b]pyridin-1(2H)-yl)methanone]	55	329	5		274	< 100
10.3	1.6 (≈ 0.748 µg/mL)	0.76	0.13	Cc1ncn2c1c(N)nc1ccc(C(=O)N3CCC[C@@H]4Oc5cc(C(F)(F)F)ccc5[C@@H]43)cc12 [Fg-31, (4-amino-3-methylimidazo[1,5-a]quinoxalin-8-yl)((4aS,9bS)-7-(trifluoromethyl)-3,4,4a,9b-tetrahydrobenzofuro[3,2-b]pyridin-1(2H)-yl)methanone]	113	312	19		2140	< 100
